Results reported in ChEMBL document CHEMBL6109105, “Design, synthesis and antibacterial evaluation of oxazolidinone derivatives containing N-methylglycyl or quaternary ammonium salts” (Bioorg Med Chem, 2025).
≈ marks a conversion by molar mass, not a printed value. Calls of active or inactive are those of the source. The rule behind the calls is not given here.

Key:
[1] = system: Stenotrophomonas maltophilia; assay: Antibacterial activity against Stenotrophomonas maltophilia ATCC 17808 assessed as inhibition of bacterial growth incubated for 16 to 18 hrs by microbroth dilution method; assay type: functional; settings: time 16-18 hrs, read-out: MIC100
Staphylococcus aureus [2] = assay: Antibacterial activity against Staphylococcus aureus ATCC 29213 assessed as inhibition of bacterial growth incubated for 16 to 18 hrs by microbroth dilution method; assay type: functional; settings: time 16-18 hrs, read-out: MIC100
Enterococcus faecalis [3] = assay: Antibacterial activity against Enterococcus faecalis ATCC 29212 assessed as inhibition of bacterial growth incubated for 16 to 18 hrs by microbroth dilution method; assay type: functional; settings: time 16-18 hrs, read-out: MIC100
[4] = Hemolytic activity in sheep RBC assessed as hemolysis incubated for 1 hrs by microplate reader analysis; assay type: toxicity, cell-based, Ovis aries, Erythrocyte; settings: sheep red blood cells
Escherichia coli = assay: Antibacterial activity against Escherichia coli ATCC 25922 assessed as inhibition of bacterial growth incubated for 16 to 18 hrs by microbroth dilution method; assay type: functional; settings: time 16-18 hrs, read-out: MIC100
Cell membrane [5] = assay: Induction of cell membrane damage in Enterococcus faecalis assessed as nucleic acid leakage at 16 times of MIC incubated for 2 hrs by fluorescence spectrophotometric analysis; assay type: subcellular
[6] = Cytotoxicity against human HeLa cells assessed as cell viability at 64 microg/ml incubated for 24 hrs by CCK8 assay relative to control; assay type: toxicity, cell-based; settings: at 64 µg/mL, read-out: Activity
Enterococcus faecalis [7] = assay: Antibacterial activity against Enterococcus faecalis assessed as inhibition of bacterial growth incubated for 3 hrs in presence of 50% plasma by dilution method; assay type: functional
Enterococcus faecalis [8] = assay: Disruption of preformed biofilm in Enterococcus faecalis assessed as bacterial survival rate at 32 times of MIC measured after 24 hrs relative to control; assay type: functional
Cell membrane [9] = assay: Induction of cell membrane damage in Enterococcus faecalis assessed as nucleic acid leakage at 8 times of MIC incubated for 2 hrs by fluorescence spectrophotometric analysis; assay type: subcellular
Cell membrane [10] = assay: Induction of cytoplasmic membrane permeability in Enterococcus faecalis assessed as increase in fluorescence intensity at 8 times of MIC by PI staining based analysis
Enterococcus faecalis [11] = assay: Induction of ROS accumulation in Enterococcus faecalis assessed as fluorescence intensity at 8 times of MIC incubated for 30 mins by DCFH-DA staining based microplate reader analysis; assay type: functional; settings: 0.5 h
Enterococcus faecalis [12] = assay: Antibacterial activity against Enterococcus faecalis assessed as post-antibiotic effect at 8 times of MIC measured up to 8 hrs; assay type: functional
Enterococcus faecalis [13] = assay: Post-antibiotic affect in Enterococcus faecalis assessed as reduction in growth rate at 8 times of MIC measured after 1 hrs; assay type: functional, organism-based
Cell membrane [14] = assay: Induction of cytoplasmic membrane depolarization in Enterococcus faecalis assessed as increase in fluorescence intensity by DiSC35 dye based microplate reader analysis
Enterococcus faecalis [15] = assay: Disruption of preformed biofilm in Enterococcus faecalis assessed as bacterial survival rate at 16 times of MIC measured after 24 hrs relative to control; assay type: functional
Enterococcus faecalis [16] = assay: Antipersister-activity against in Enterococcus faecalis assessed as log reduction in persistent cells at 32 times of MIC preincubated with 100 times of MIC of rifampicin for 24 hrs followed by compound addition and measured after 8 hrs by drop plate counting method; assay type: functional
Enterococcus faecalis [17] = assay: Post-antibiotic affect in Enterococcus faecalis assessed as reduction in growth rate at 16 times of MIC measured after 1 hrs; assay type: functional, organism-based
Enterococcus faecalis [18] = assay: Induction of ROS-dependent oxidative stress in Enterococcus faecalis assessed as decrease in GSH activity at 8 times of MIC (reference value: 1.34 %); assay type: functional; parameters: scale not given: the % may be the effect or the level left
Enterococcus faecalis [19] = assay: Antibacterial activity against Enterococcus faecalis assessed as inhibition of bacterial growth incubated for 3 hrs in presence of 50% MHB by dilution method; assay type: functional, organism-based
Cell membrane [20] = assay: Induction of cell membrane damage in Enterococcus faecalis assessed as nucleic acid leakage at 32 times of MIC incubated for 2 hrs by fluorescence spectrophotometric analysis; assay type: subcellular
Staphylococcus aureus [21] = assay: Antibacterial activity against methicillin-resistant Staphylococcus aureus assessed as inhibition of bacterial growth by CLSI protocol based broth liquid microdilution method; assay type: functional
Enterococcus = assay: Antibacterial activity against vancomycin-resistant enterococcus assessed as inhibition of bacterial growth by CLSI protocol based broth liquid microdilution method; assay type: functional
Staphylococcus aureus [22] = assay: Antibacterial activity against Staphylococcus aureus ATCC 29213 assessed as inhibition of bacterial growth by CLSI protocol based broth liquid microdilution method; assay type: functional
[23] = (§1) Selectivity ratio of MIC for antibacterial activity against Enterococcus faecalis assessed as inhibition of bacterial growth measured after 3 hrs in presence of 50% plasma to MIC for antibacterial activity against Enterococcus faecalis assessed as inhibition of bacterial growth assessed as inhibition of bacterial growth measured after 16 to 18 hrs; assay type: functional
[24] = as §1, with “immediately” for “after 3 hrs”; assay type: functional
HeLa = assay: Cytotoxicity against human HeLa cells assessed as increase in red fluorescence at 32 microg/ml incubated for 24 hrs by calcein-AM/PI staining based fluorescence microscopic analysis; assay type: toxicity, cell-based; settings: dose 32 µg/ml

## CC(=O)NC[C@H]1CN(c2ccc(N3CCN(C(=O)CN(C)Cc4cccc(C)c4)CC3)c(F)c2)C(=O)O1
[1]
  MIC: > 128 µg/mL
Staphylococcus aureus [2]
  MIC: 16 µg/mL (≈ 31.3 µM)
Enterococcus faecalis [3]
  MIC: 4 µg/mL (≈ 7.82 µM)
[4]
  HC50 at 1 h: > 1280 µg/mL
Escherichia coli
  MIC: > 128 µg/mL

## CC(=O)NC[C@H]1CN(c2ccc(N3CCOCC3)c(F)c2)C(=O)O1 [LINEZOLID]
Cell membrane [5]
  Activity: Active
[6]
  viability at 24 h, 64 microg/ml: 56.5%
[1]
  MIC: > 128 µg/mL
Enterococcus faecalis [7]
  Activity: Active
Enterococcus faecalis [8]
  Activity: 0.49%
Cell membrane [9]
  Activity: Active
Cell membrane [10]
  Activity: inactive
Enterococcus faecalis [11]
  Flu intensity: 377 a.u.
Staphylococcus aureus [2]
  MIC: 1 µg/mL (≈ 2.96 µM)
Enterococcus faecalis [12]
  PAE: 0.67 h
Enterococcus faecalis [13]
  Activity: Active
Cell membrane [14]
  Activity: inactive
Enterococcus faecalis [15]
  Activity: 1.36%
[4]
  HC50 at 1 h: > 1280 µg/mL
Enterococcus faecalis [16]
  Activity: 3.24 log10CFU/ml
Enterococcus faecalis [17]
  Activity: Active
Escherichia coli
  MIC: > 128 µg/mL
Enterococcus faecalis [18]
  Activity: 13.01%
Enterococcus faecalis [19]
  Activity: Active
Cell membrane [20]
  Activity: Active

## C[C@@H](O)[C@H]1C(=O)N2C(C(=O)O)=C(S[C@@H]3CN[C@H](C(=O)N(C)C)C3)[C@H](C)[C@H]12 [MEROPENEM]
[1]
  MIC: 0.031 µg/mL (≈ 0.0808 µM)
Escherichia coli
  MIC: 0.031 µg/mL (≈ 0.0808 µM)

## CCCCCC[N+](C)(C)CC(=O)N1CCN(c2ccc(N3C[C@H](CNC(C)=O)OC3=O)cc2F)CC1.[Br-]
[1]
  MIC: > 128 µg/mL
Staphylococcus aureus [2]
  MIC: 128 µg/mL
Enterococcus faecalis [3]
  MIC: 8 µg/mL
[4]
  HC50 at 1 h: > 1280 µg/mL
Escherichia coli
  MIC: > 128 µg/mL

## CC[N+](C)(C)CC(=O)N1CCN(c2ccc(N3C[C@H](CNC(C)=O)OC3=O)cc2F)CC1.[Br-]
[1]
  MIC: > 128 µg/mL
Staphylococcus aureus [2]
  MIC: 64 µg/mL
Enterococcus faecalis [3]
  MIC: 32 µg/mL
[4]
  HC50 at 1 h: > 1280 µg/mL
Escherichia coli
  MIC: > 128 µg/mL

## CC(=O)NC[C@H]1CN(c2ccc(N3CCN(/N=C\c4ccc([N+](=O)[O-])o4)CC3)c(F)c2)C(=O)O1
Staphylococcus aureus [21]
  MIC: 1 µg/mL (≈ 2.11 µM)
Enterococcus
  MIC: 1 µg/mL (≈ 2.11 µM)
Staphylococcus aureus [22]
  MIC: 0.25 µg/mL (≈ 0.527 µM)

## CC[C@H](C)[C@H](NC(=O)CN)C(=O)NCC(=O)N[C@@H](C)C(=O)N[C@H](C(=O)N[C@@H](CC(C)C)C(=O)N[C@@H](CCCCN)C(=O)N[C@H](C(=O)N[C@@H](CC(C)C)C(=O)N[C@H](C(=O)N[C@H](C(=O)NCC(=O)N[C@@H](CC(C)C)C(=O)N1CCC[C@H]1C(=O)N[C@@H](C)C(=O)N[C@@H](CC(C)C)C(=O)N[C@H](C(=O)N[C@@H](CO)C(=O)N[C@@H](Cc1c[nH]c2ccccc12)C(=O)N[C@H](C(=O)N[C@@H](CCCCN)C(=O)N[C@@H](CCCNC(=N)N)C(=O)N[C@@H](CCCCN)C(=O)N[C@@H](CCCNC(=N)N)C(=O)N[C@@H](CCC(N)=O)C(=O)N[C@@H](CCC(N)=O)C(N)=O)[C@@H](C)CC)[C@@H](C)CC)[C@@H](C)O)[C@@H](C)O)C(C)C)C(C)C [MELITTIN]
[6]
  viability at 24 h, 64 microg/ml: 5.2%
Enterococcus faecalis [7]
  MIC: 32 µg/mL
Cell membrane [10]
  Activity: Active
[23]
  Selectivity ratio: >16
[24]
  Selectivity ratio: >16
HeLa
  Activity: Toxic

## COc1ccccc1CN(C)CC(=O)N1CCN(c2ccc(N3C[C@H](CNC(C)=O)OC3=O)cc2F)CC1
[1]
  MIC: > 128 µg/mL
Staphylococcus aureus [2]
  MIC: 16 µg/mL (≈ 30.3 µM)
Enterococcus faecalis [3]
  MIC: 2 µg/mL (≈ 3.79 µM)
[4]
  HC50 at 1 h: > 1280 µg/mL
Escherichia coli
  MIC: > 128 µg/mL

## CC(=O)NC[C@H]1CN(c2ccc(N3CCN(C(=O)C[N+](C)(C)Cc4ccccc4)CC3)c(F)c2)C(=O)O1.[Br-]
[1]
  MIC: > 128 µg/mL
Staphylococcus aureus [2]
  MIC: 128 µg/mL
Enterococcus faecalis [3]
  MIC: 4 µg/mL
[4]
  HC50 at 1 h: > 1280 µg/mL
Escherichia coli
  MIC: > 128 µg/mL

## COc1ccc(CN(C)CC(=O)N2CCN(c3ccc(N4C[C@H](CNC(C)=O)OC4=O)cc3F)CC2)cc1
[1]
  MIC: > 128 µg/mL
Staphylococcus aureus [2]
  MIC: 16 µg/mL (≈ 30.3 µM)
Enterococcus faecalis [3]
  MIC: 2 µg/mL (≈ 3.79 µM)
[4]
  HC50 at 1 h: > 1280 µg/mL
Escherichia coli
  MIC: > 128 µg/mL

## CC(=O)NC[C@H]1CN(c2ccc(N3CCN(C(=O)CN(C)Cc4cccc([N+](=O)[O-])c4)CC3)c(F)c2)C(=O)O1
[1]
  MIC: > 128 µg/mL
Staphylococcus aureus [2]
  MIC: 8 µg/mL (≈ 14.7 µM)
Enterococcus faecalis [3]
  MIC: 2 µg/mL (≈ 3.69 µM)
[4]
  HC50 at 1 h: > 1280 µg/mL
Escherichia coli
  MIC: > 128 µg/mL

## CC(=O)NC[C@H]1CN(c2ccc(N3CCN(C(=O)C[N+](C)(C)Cc4ccc(C(F)(F)F)cc4)CC3)c(F)c2)C(=O)O1.[Br-]
[1]
  MIC: > 128 µg/mL
Staphylococcus aureus [2]
  MIC: 128 µg/mL
Enterococcus faecalis [3]
  MIC: 128 µg/mL
[4]
  HC50 at 1 h: > 1280 µg/mL
Escherichia coli
  MIC: > 128 µg/mL

## CC(=O)NC[C@H]1CN(c2ccc(N3CCN(C(=O)CN(C)Cc4ccc(C(F)(F)F)cc4)CC3)c(F)c2)C(=O)O1
[1]
  MIC: > 128 µg/mL
Staphylococcus aureus [2]
  MIC: 16 µg/mL (≈ 28.3 µM)
Enterococcus faecalis [3]
  MIC: 2 µg/mL (≈ 3.54 µM)
[4]
  HC50 at 1 h: > 1280 µg/mL
Escherichia coli
  MIC: > 128 µg/mL
